# Measured values: US4388311A, “Method for the induction of menses” (G. D. Searle & Co., priority 1982, dated 1983)
# Where “and” joins values, the source holds several entries; their conditions need not be identical. Identical values can stand only once.
# Columns and labels:
# Type in all cases: in vivo, rat
# pregnancy in rats [1] = assay: Termination of pregnancy in rats, compounds administered subcutaneously (Table 2); details: for Serum Progesterone (Percent Control) / Serum Progesterone ng/ml + S.E.: serum day 11, 24 hours after initial injection
# Protocol: (§1) The following tables list the results for a compound of Formula IV as compared with a control of previously known 2α-cyano-17β-hydroxy-3-oxo-4,4,17α-trimethylandrost-5-end(Cyanoketone) for termination of pregnancy.
# ^1 Compounds given subcutaneously in corn oil vehicle once daily on
# days 10 through 13 of pregnancy. Serum for progesterone determination was
# drawn on day 11 of pregnancy, 24 hours after the initial injection of
# (§2) compound. The animals were autopsied on day 14 of pregnancy.
# ^2 Serum progesterone values determined by RIA at Interlab Associates
# pregnancy in rats [2] = assay: Pregnancy termination in rats, compounds administered intragastrically on day 10 of pregnancy (Table 3); details: for Serum Progesterone (Percent Control) / Serum Progesterone ng/ml + S.E.: serum day 11, 24 hours after injection; for Adrenal Wt. mg + SE / Fetal Viability: Normal Fetuses/Implantation Sites / Fetal Viability: Normal Fetuses/Implantation Sites (Percent) / Number of Rats Pregnant/Number of Rats Treated / Number of Rats Pregnant/Number of Rats Treated (Percent): autopsy day 14
# Protocol: as §1
# (§3) ^1 Compounds were administered intragastrically once daily on days 10
# of pregnancy in a vehicle consisting of PEG400, propylene glycol and 100
# percent ethanol (50:40:10, v:v:v). Serum for progesterone determination
# was drawn on day 11 of pregnancy, 24 hours after the initial injection of
# as §2
# pregnancy in rats [3] = assay: Pregnancy termination in rats, compounds administered intragastrically for four days (Table 1); details: for Serum Progesterone (Percent Control) / Serum Progesterone ng/ml + S.E.: serum day 11, 24 hours after initial injection; for Adrenal Wt. mg + SE / Fetal Viability: Normal Fetuses/Implantation Sites / Fetal Viability: Normal Fetuses/Implantation Sites (Percent) / Number of Rats Pregnant/Number of Rats Treated / Number of Rats Pregnant/Number of Rats Treated (Percent): autopsy day 14
# Protocol: as §1, §3
# through 13 of pregnancy in a vehicle consisting of PEG400, propylene
# glycol and 100 percent ethanol (50:40:10, v:v:v). Serum for progesterone
# determination was drawn on day 11 of pregnancy, 24 hours after the initia
# injection of compound. The animals were autopsied on day 14 of pregnancy.
# [4] = 2 mg/kg/day subcutaneously days 10-13 of pregnancy
# [5] = 2 mg/kg/day subcutaneously in corn oil once daily days 10-13 of pregnancy, autopsy day 14
# [6] = 4 mg/kg/day subcutaneously days 10-13 of pregnancy
# [7] = 4 mg/kg/day subcutaneously in corn oil once daily days 10-13 of pregnancy, autopsy day 14
# [8] = 8 mg/kg/day subcutaneously days 10-13 of pregnancy
# [9] = 8 mg/kg/day subcutaneously in corn oil once daily days 10-13 of pregnancy, autopsy day 14
# [10] = 16 mg/kg/day subcutaneously days 10-13 of pregnancy, 16 mg/kg/day
# [11] = 16 mg/kg/day subcutaneously in corn oil once daily days 10-13 of pregnancy, autopsy day 14
# [12] = 16 mg/kg/day subcutaneously in corn oil once daily days 10-13 of pregnancy, autopsy day 14, 16 mg/kg/day
# [13] = 4 mg/kg intragastrically on day 10 of pregnancy
# [14] = 4 mg/kg intragastrically once on day 10 of pregnancy
# [15] = 8 mg/kg intragastrically on day 10 of pregnancy
# [16] = 8 mg/kg intragastrically once on day 10 of pregnancy
# [17] = 16 mg/kg intragastrically on day 10 of pregnancy
# [18] = 16 mg/kg intragastrically once on day 10 of pregnancy
# [19] = 2 mg/kg/day intragastrically days 10-13 of pregnancy
# [20] = 2 mg/kg/day intragastrically once daily days 10-13 of pregnancy
# [21] = 4 mg/kg/day intragastrically days 10-13 of pregnancy
# [22] = 4 mg/kg/day intragastrically once daily days 10-13 of pregnancy
# [23] = 8 mg/kg/day intragastrically days 10-13 of pregnancy
# [24] = 8 mg/kg/day intragastrically once daily days 10-13 of pregnancy
# [25] = 16 mg/kg/day intragastrically days 10-13 of pregnancy
# [26] = 16 mg/kg/day intragastrically once daily days 10-13 of pregnancy
structure (smiles),measurement,setting,value
"CC(=O)OC1=C(C#N)C[C@@]2(C)C(=CC[C@@H]3[C@@H]2CC[C@@]2(C)[C@H]3CC[C@]2(C)O)C1(C)C [3-(acetyloxy)-17β-hydroxy-4,4,17α-trimethylandrosta-2,5-diene-2-carbonitrile]",Serum Progesterone (Percent Control),pregnancy in rats [1]; [4],91 Percent Control
same,Serum Progesterone ng/ml + S.E.,pregnancy in rats [1]; [4],52.3 + 2.8 ng/ml
same,Adrenal Wt. mg + SE,pregnancy in rats [1]; [5],81.2 + 3.2 mg
same,Fetal Viability: Normal Fetuses/Implantation Sites,pregnancy in rats [1]; [5],101/109
same,Fetal Viability: Normal Fetuses/Implantation Sites (Percent),pregnancy in rats [1]; [5],93%
same,Number of Rats Pregnant/Number of Rats Treated,pregnancy in rats [1]; [5],9/9
same,Number of Rats Pregnant/Number of Rats Treated (Percent),pregnancy in rats [1]; [5],100%
same,Serum Progesterone (Percent Control),pregnancy in rats [1]; [6],32 Percent Control
same,Serum Progesterone ng/ml + S.E.,pregnancy in rats [1]; [6],14.2 + 4.9 ng/ml
same,Adrenal Wt. mg + SE,pregnancy in rats [1]; [7],72.9 + 3.8 mg
same,Fetal Viability: Normal Fetuses/Implantation Sites,pregnancy in rats [1]; [7],21/72
same,Fetal Viability: Normal Fetuses/Implantation Sites (Percent),pregnancy in rats [1]; [7],29%
same,Number of Rats Pregnant/Number of Rats Treated,pregnancy in rats [1]; [7],2/7
same,Number of Rats Pregnant/Number of Rats Treated (Percent),pregnancy in rats [1]; [7],29%
same,Serum Progesterone (Percent Control),pregnancy in rats [1]; [8],29 Percent Control
same,Serum Progesterone ng/ml + S.E.,pregnancy in rats [1]; [8],12.7 + 1.4 ng/ml
same,Adrenal Wt. mg + SE,pregnancy in rats [1]; [9],83.9 + 2.0 mg
same,Fetal Viability: Normal Fetuses/Implantation Sites,pregnancy in rats [1]; [9],0/112
same,Fetal Viability: Normal Fetuses/Implantation Sites (Percent),pregnancy in rats [1]; [9],0%
same,Number of Rats Pregnant/Number of Rats Treated,pregnancy in rats [1]; [9],0/9
same,Number of Rats Pregnant/Number of Rats Treated (Percent),pregnancy in rats [1]; [9],0%
same,Serum Progesterone (Percent Control),pregnancy in rats [1]; [10],26 Percent Control and 36 Percent Control
same,Serum Progesterone ng/ml + S.E.,pregnancy in rats [1]; [10],13.1 + 1.4 ng/ml and 15.7 + 2.8 ng/ml
same,Fetal Viability: Normal Fetuses/Implantation Sites (Percent),pregnancy in rats [1]; [11],0%
same,Number of Rats Pregnant/Number of Rats Treated,pregnancy in rats [1]; [11],0/8
same,Number of Rats Pregnant/Number of Rats Treated (Percent),pregnancy in rats [1]; [11],0%
same,Adrenal Wt. mg + SE,pregnancy in rats [1]; [12],93.8 + 4.9 mg and 98.3 + 2.8 mg
same,Fetal Viability: Normal Fetuses/Implantation Sites,pregnancy in rats [1]; [12],0/98 and 0/84
same,Serum Progesterone (Percent Control),pregnancy in rats [2]; [13],33 Percent Control
same,Serum Progesterone ng/ml + S.E.,pregnancy in rats [2]; [13],19.0 + 7.4 ng/ml
same,Adrenal Wt. mg + SE,pregnancy in rats [2]; [14],60.0 + 4.2 mg
same,Fetal Viability: Normal Fetuses/Implantation Sites,pregnancy in rats [2]; [14],6/82
same,Fetal Viability: Normal Fetuses/Implantation Sites (Percent),pregnancy in rats [2]; [14],7%
same,Number of Rats Pregnant/Number of Rats Treated,pregnancy in rats [2]; [14],1/8
same,Number of Rats Pregnant/Number of Rats Treated (Percent),pregnancy in rats [2]; [14],13%
same,Serum Progesterone (Percent Control),pregnancy in rats [2]; [15],18 Percent Control
same,Serum Progesterone ng/ml + S.E.,pregnancy in rats [2]; [15],10.4 + 2.5 ng/ml
same,Adrenal Wt. mg + SE,pregnancy in rats [2]; [16],62.0 + 2.5 mg
same,Fetal Viability: Normal Fetuses/Implantation Sites,pregnancy in rats [2]; [16],0/81
same,Fetal Viability: Normal Fetuses/Implantation Sites (Percent),pregnancy in rats [2]; [16],0%
same,Number of Rats Pregnant/Number of Rats Treated,pregnancy in rats [2]; [16],0/7
same,Number of Rats Pregnant/Number of Rats Treated (Percent),pregnancy in rats [2]; [16],0%
same,Serum Progesterone (Percent Control),pregnancy in rats [2]; [17],24 Percent Control
same,Serum Progesterone ng/ml + S.E.,pregnancy in rats [2]; [17],13.8 + 1.7 ng/ml
same,Adrenal Wt. mg + SE,pregnancy in rats [2]; [18],56.8 + 2.0 mg
same,Fetal Viability: Normal Fetuses/Implantation Sites,pregnancy in rats [2]; [18],0/60
same,Fetal Viability: Normal Fetuses/Implantation Sites (Percent),pregnancy in rats [2]; [18],0%
same,Number of Rats Pregnant/Number of Rats Treated,pregnancy in rats [2]; [18],0/6
same,Number of Rats Pregnant/Number of Rats Treated (Percent),pregnancy in rats [2]; [18],0%
same,Serum Progesterone (Percent Control),pregnancy in rats [3]; [19],109 Percent Control
same,Serum Progesterone ng/ml + S.E.,pregnancy in rats [3]; [19],49.6 + 6.2 ng/ml
same,Adrenal Wt. mg + SE,pregnancy in rats [3]; [20],68.9 + 2.2 mg
same,Fetal Viability: Normal Fetuses/Implantation Sites,pregnancy in rats [3]; [20],60/89
same,Fetal Viability: Normal Fetuses/Implantation Sites (Percent),pregnancy in rats [3]; [20],67%
same,Number of Rats Pregnant/Number of Rats Treated,pregnancy in rats [3]; [20],7/9
same,Number of Rats Pregnant/Number of Rats Treated (Percent),pregnancy in rats [3]; [20],78%
same,Serum Progesterone (Percent Control),pregnancy in rats [3]; [21],29 Percent Control
same,Serum Progesterone ng/ml + S.E.,pregnancy in rats [3]; [21],13.4 + 3.9 ng/ml
same,Adrenal Wt. mg + SE,pregnancy in rats [3]; [22],68.6 + 2.3 mg
same,Fetal Viability: Normal Fetuses/Implantation Sites,pregnancy in rats [3]; [22],0/112
same,Fetal Viability: Normal Fetuses/Implantation Sites (Percent),pregnancy in rats [3]; [22],0%
same,Number of Rats Pregnant/Number of Rats Treated,pregnancy in rats [3]; [22],0/10
same,Number of Rats Pregnant/Number of Rats Treated (Percent),pregnancy in rats [3]; [22],0%
same,Serum Progesterone (Percent Control),pregnancy in rats [3]; [23],40 Percent Control
same,Serum Progesterone ng/ml + S.E.,pregnancy in rats [3]; [23],18.1 + 2.5 ng/ml
same,Adrenal Wt. mg + SE,pregnancy in rats [3]; [24],70.3 + 3.1 mg
same,Fetal Viability: Normal Fetuses/Implantation Sites,pregnancy in rats [3]; [24],0/95
same,Fetal Viability: Normal Fetuses/Implantation Sites (Percent),pregnancy in rats [3]; [24],0%
same,Number of Rats Pregnant/Number of Rats Treated,pregnancy in rats [3]; [24],0/10
same,Number of Rats Pregnant/Number of Rats Treated (Percent),pregnancy in rats [3]; [24],0%
same,Serum Progesterone (Percent Control),pregnancy in rats [3]; [25],29 Percent Control
same,Serum Progesterone ng/ml + S.E.,pregnancy in rats [3]; [25],13.4 + 2.0 ng/ml
same,Adrenal Wt. mg + SE,pregnancy in rats [3]; [26],72.1 + 2.1 mg
same,Fetal Viability: Normal Fetuses/Implantation Sites,pregnancy in rats [3]; [26],0/111
same,Fetal Viability: Normal Fetuses/Implantation Sites (Percent),pregnancy in rats [3]; [26],0%
same,Number of Rats Pregnant/Number of Rats Treated,pregnancy in rats [3]; [26],0/10
same,Number of Rats Pregnant/Number of Rats Treated (Percent),pregnancy in rats [3]; [26],0%
